Here are results for one compound from article PMC8836076, “A Fungal Versatile GH10 Endoxylanase and Its Glycosynthase Variant: Synthesis of Xylooligosaccharides and Glycosides of Bioactive Phenolic Compounds” (International Journal of Molecular Sciences, 2022).

The test addresses T1, rXynSOS (Talaromyces amestolkiae, UniProt A0A364LCP8, E255G).
T1 construct: gene BHQ10_009513; mature protein (389 aa, GH10 domain + C-terminal CBM1), 19-aa signal peptide removed, pPIC9 in Pichia pastoris GS115, no tag, starts QLNTAAK (from primer), glycosylated, 53 kDa monomer
As to the kind of experiment: ESI-MS and NMR of xylooligosaccharide synthesis. Format: biochemical. The note with it: glycosynthase; 20 mM X2F as only reactant (donor and acceptor), 50 mM sodium acetate pH 5, 25 °C, 16 h.

Each structure is given as a SMILES string.

T1 sequence (A0A364LCP8 entry or part of it E255G): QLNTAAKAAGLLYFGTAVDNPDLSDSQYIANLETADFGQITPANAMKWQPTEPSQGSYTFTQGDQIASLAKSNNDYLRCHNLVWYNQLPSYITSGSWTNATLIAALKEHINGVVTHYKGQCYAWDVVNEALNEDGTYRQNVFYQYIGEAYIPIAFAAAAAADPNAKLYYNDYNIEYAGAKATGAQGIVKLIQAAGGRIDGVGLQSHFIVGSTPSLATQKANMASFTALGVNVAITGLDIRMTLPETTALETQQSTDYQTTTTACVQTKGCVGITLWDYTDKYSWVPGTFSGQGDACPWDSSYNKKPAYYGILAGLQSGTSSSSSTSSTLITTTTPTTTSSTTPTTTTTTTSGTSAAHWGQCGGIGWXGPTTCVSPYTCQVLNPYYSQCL

Consider `O[C@@H]1[C@@H](O)[C@H](O[C@@H]2CO[C@H](F)[C@H](O)[C@H]2O)OC[C@H]1O` [X2F, xylobiose-fluoride], for which the “ESI-MS and NMR of xylooligosaccharide synthesis” value was “reaction with X2F as the only reactant molecule (no acceptor was added)”.
